Results as given in ChEMBL document CHEMBL1133324, “Suitably functionalised pyrimidines as potential antimycotic agents” (2000).
Converted amounts (≈) assume the structure as drawn.

How the values were obtained:
[1] = tested on: Aspergillus fumigatus; test: In vitro antifungal activity against human pathogenic fungi, Aspergillus fumigatus; format: functional
[2] = tested on: Candida albicans; test: In vitro antifungal activity against human pathogenic fungi, Candida albicans; format: functional
[3] = tested on: Cryptococcus neoformans; test: In vitro antifungal activity against human pathogenic fungi, Cryptococcus neoformans; format: functional
[4] = tested on: Sporothrix schenckii; test: In vitro antifungal activity against human pathogenic fungi, Sporothrix schenck ii; format: functional
[5] = tested on: Trichophyton benhamiae; test: In vitro antifungal activity against human pathogenic fungi, Trichophyton mentagrophytes; format: functional, Arthroderma benhamiae

SMILES: CSc1nc(-c2ccccc2)nc(Cl)c1C#N
- MIC [1]: 0.02 µg/mL (≈ 0.0764 µM)
- MIC [2]: > 100 µg/mL
- MIC [3]: > 100 µg/mL
- MIC [4]: > 100 µg/mL
- MIC [5]: 12.5 µg/mL (≈ 47.8 µM)

SMILES: COc1ccc(-c2nc(SC)nc(Nc3ccc(Cl)cc3)c2C#N)cc1
- MIC [1]: > 100 µg/mL
- MIC [2]: > 100 µg/mL
- MIC [3]: > 100 µg/mL
- MIC [4]: > 100 µg/mL
- MIC [5]: > 100 µg/mL

SMILES: CSc1nc(S)c(C#N)c(-c2cccc(F)c2)n1
- MIC [1]: > 100 µg/mL
- MIC [2]: > 100 µg/mL
- MIC [3]: > 100 µg/mL
- MIC [4]: > 100 µg/mL
- MIC [5]: > 100 µg/mL

SMILES: CCc1nc(Cl)c(C#N)c(SC)n1
- MIC [1]: 6.25 µg/mL (≈ 29.2 µM)
- MIC [2]: 25 µg/mL (≈ 117 µM)
- MIC [3]: 1.56 µg/mL (≈ 7.3 µM)
- MIC [4]: 12.5 µg/mL (≈ 58.5 µM)
- MIC [5]: 1.56 µg/mL (≈ 7.3 µM)

SMILES: CSc1nc(Cl)c(C#N)c(-c2cccc(Cl)c2)n1
- MIC [1]: 0.09 µg/mL (≈ 0.304 µM)
- MIC [2]: > 100 µg/mL
- MIC [3]: 1.56 µg/mL (≈ 5.27 µM)
- MIC [4]: > 100 µg/mL
- MIC [5]: 0.39 µg/mL (≈ 1.32 µM)

SMILES: CSc1nc(Nc2ccc(Cl)cc2)c(C#N)c(-c2ccc(F)cc2)n1
- MIC [1]: > 100 µg/mL
- MIC [2]: > 100 µg/mL
- MIC [3]: > 100 µg/mL
- MIC [4]: > 100 µg/mL
- MIC [5]: > 100 µg/mL

SMILES: CSc1nc(Cl)c(C#N)c(SC)n1
- MIC [1]: 0.002 µg/mL (≈ 0.00863 µM)
- MIC [2]: > 100 µg/mL
- MIC [3]: 1.56 µg/mL (≈ 6.73 µM)
- MIC [4]: 50 µg/mL (≈ 216 µM)
- MIC [5]: 0.005 µg/mL (≈ 0.0216 µM)

SMILES: CSc1nc(Cl)c(C#N)c(-c2cccc(F)c2)n1
- MIC [1]: 0.09 µg/mL (≈ 0.322 µM)
- MIC [2]: > 100 µg/mL
- MIC [3]: 50 µg/mL (≈ 179 µM)
- MIC [4]: > 100 µg/mL
- MIC [5]: 0.09 µg/mL (≈ 0.322 µM)

SMILES: COc1ccc(-c2nc(SC)nc(Cl)c2C#N)cc1
- MIC [1]: 50 µg/mL (≈ 171 µM)
- MIC [2]: > 100 µg/mL
- MIC [3]: > 100 µg/mL
- MIC [4]: > 100 µg/mL
- MIC [5]: 50 µg/mL (≈ 171 µM)

SMILES: CSc1nc(Cl)c(C#N)c(-c2ccc(F)cc2)n1
- MIC [1]: 0.04 µg/mL (≈ 0.143 µM)
- MIC [2]: > 100 µg/mL
- MIC [3]: 50 µg/mL (≈ 179 µM)
- MIC [4]: > 100 µg/mL
- MIC [5]: 0.09 µg/mL (≈ 0.322 µM)

SMILES: CSc1nc(Cl)c(C#N)c(-c2ccc(Cl)cc2)n1
- MIC [1]: 0.04 µg/mL (≈ 0.135 µM)
- MIC [2]: > 100 µg/mL
- MIC [3]: > 100 µg/mL
- MIC [4]: > 100 µg/mL
- MIC [5]: 0.19 µg/mL (≈ 0.641 µM)

SMILES: CSc1nc(SCc2ccccc2)nc(Cl)c1C#N
- MIC [1]: 0.78 µg/mL (≈ 2.53 µM)
- MIC [2]: 50 µg/mL (≈ 162 µM)
- MIC [3]: 6.25 µg/mL (≈ 20.3 µM)
- MIC [4]: 50 µg/mL (≈ 162 µM)
- MIC [5]: 0.19 µg/mL (≈ 0.617 µM)

SMILES: CSc1nc(Nc2ccc(Cl)cc2)c(C#N)c(-c2cccc(F)c2)n1
- MIC [1]: > 100 µg/mL
- MIC [2]: > 100 µg/mL
- MIC [3]: > 100 µg/mL
- MIC [4]: > 100 µg/mL
- MIC [5]: > 100 µg/mL

SMILES: CSc1ncnc(Cl)c1C#N
- MIC [1]: 0.39 µg/mL (≈ 2.1 µM)
- MIC [2]: 25 µg/mL (≈ 135 µM)
- MIC [3]: 1.56 µg/mL (≈ 8.4 µM)
- MIC [4]: 6.25 µg/mL (≈ 33.7 µM)
- MIC [5]: 0.39 µg/mL (≈ 2.1 µM)

SMILES: CCSc1nc(Cl)c(C#N)c(-c2cccc(F)c2)n1
- MIC [1]: 1.56 µg/mL (≈ 5.31 µM)
- MIC [2]: > 100 µg/mL
- MIC [3]: 3.12 µg/mL (≈ 10.6 µM)
- MIC [4]: 50 µg/mL (≈ 170 µM)
- MIC [5]: 0.39 µg/mL (≈ 1.33 µM)

SMILES: C[C@@H]1[C@H](O)[C@@H](C)/C=C/C=C/C=C/C=C/C=C/C=C/C=C/[C@H](O[C@@H]2O[C@H](C)[C@@H](O)[C@H](N)[C@@H]2O)C[C@@H]2O[C@](O)(C[C@@H](O)C[C@@H](O)[C@H](O)CC[C@@H](O)C[C@@H](O)CC(=O)O[C@H]1C)C[C@H](O)[C@H]2C(=O)O [AMPHOTERICIN B]
- MIC [1]: 0.002 µg/mL (≈ 0.00216 µM)
- MIC [5]: 0.005 µg/mL (≈ 0.00541 µM)

SMILES: CC(=O)N1CCN(c2ccc(OC[C@H]3CO[C@](Cn4ccnc4)(c4ccc(Cl)cc4Cl)O3)cc2)CC1 [KETOCONAZOLE]
- MIC [1]: 0.7 µg/mL (≈ 1.32 µM)
- MIC [2]: 0.3 µg/mL (≈ 0.565 µM)
- MIC [3]: 0.1 µg/mL (≈ 0.188 µM)
- MIC [4]: 25 µg/mL (≈ 47 µM)
- MIC [5]: 0.1 µg/mL (≈ 0.188 µM)
